PubChem BioAssay AID2060889 (Molecular Pharmacology Branch, DTP, NCI, 2025)

Test system: LG0567-F671-PDC complex spheroids viability
Assay: Anticancer human tumor LG0567-F671-PDC patient-derived lung adenocarcinoma cell line growth inhibition [RAS]
Details: for IC50: curve of first compound; for viability, T/C: stronger effect = lower value
How it was run: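 Tumour cells grown as complex spheroids with HUVEC endothelial cells and mesenchymal stem cells, treated with RAS pathway inhibitor combinations. Each agent spans half-log steps from near clinical Cmax, or 10 microM where Cmax is unknown.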

[1] = second compound 0.0316 µM, first compound 0.0316 µM
[2] = second compound 0.0316 µM, first compound 0.1 µM
[3] = second compound 0.0316 µM, first compound 0.316 µM
[4] = second compound 0.0316 µM, first compound 1 µM
[5] = second compound 0.0316 µM, first compound 3.16 µM
[6] = second compound 0.0316 µM, first compound 10 µM
[7] = second compound 0.1 µM, first compound 0.0316 µM
[8] = second compound 0.1 µM, first compound 0.1 µM
[9] = second compound 0.1 µM, first compound 0.316 µM
[10] = second compound 0.1 µM, first compound 1 µM
[11] = second compound 0.1 µM, first compound 3.16 µM
[12] = second compound 0.1 µM, first compound 10 µM
[13] = second compound 0.316 µM, first compound 0.0316 µM
[14] = second compound 0.316 µM, first compound 0.1 µM
[15] = second compound 0.316 µM, first compound 0.316 µM
[16] = second compound 0.316 µM, first compound 1 µM
[17] = second compound 0.316 µM, first compound 3.16 µM
[18] = second compound 0.316 µM, first compound 10 µM
[19] = second compound 1 µM, first compound 0.0316 µM
[20] = second compound 1 µM, first compound 0.1 µM
[21] = second compound 1 µM, first compound 0.316 µM
[22] = second compound 1 µM, first compound 1 µM
[23] = second compound 1 µM, first compound 3.16 µM
[24] = second compound 1 µM, first compound 10 µM
[25] = second compound 3.16 µM, first compound 0.0316 µM
[26] = second compound 3.16 µM, first compound 0.1 µM
[27] = second compound 3.16 µM, first compound 0.316 µM
[28] = second compound 3.16 µM, first compound 1 µM
[29] = second compound 3.16 µM, first compound 3.16 µM
[30] = second compound 3.16 µM, first compound 10 µM
[31] = second compound 10 µM, first compound 0.0316 µM
[32] = second compound 10 µM, first compound 0.1 µM
[33] = second compound 10 µM, first compound 0.316 µM
[34] = second compound 10 µM, first compound 1 µM
[35] = second compound 10 µM, first compound 3.16 µM
[36] = second compound 10 µM, first compound 10 µM
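Further: spheroids exposed to compound for seven days before readout.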
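Wherever IC50 is given: luminescence signal used as a proxy for viable cells.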

CC(Nc1ccc2c(c1)OCCn1cc(N3C(=O)OCC3C(F)F)nc1-2)C(N)=O (stereo not drawn) + C#Cc1c(F)ccc2cc(O)cc(-c3ncc4c(N5CC6CCC(C5)N6)nc(OCC56CCCN5CC(F)C6)nc4c3F)c12
IC50 (second compound 0.0316 µM): 205 nM
IC50 (second compound 0.1 µM): 211 nM
IC50 (second compound 0.316 µM): 38.6 nM
IC50 (second compound 1 µM): < 31.6 nM
IC50 (second compound 3.16 µM): < 31.6 nM
IC50 (second compound 10 µM): < 31.6 nM
viability, T/C [1]: 77.6%
viability, T/C [2]: 56.2%
viability, T/C [3]: 46.9%
viability, T/C [4]: 38.2%
viability, T/C [5]: 35%
viability, T/C [6]: 31.9%
viability, T/C [7]: 73.5%
viability, T/C [8]: 62.1%
viability, T/C [9]: 43.2%
viability, T/C [10]: 32.1%
viability, T/C [11]: 30.7%
viability, T/C [12]: 26%
viability, T/C [13]: 53.1%
viability, T/C [14]: 38%
viability, T/C [15]: 31.3%
viability, T/C [16]: 30.3%
viability, T/C [17]: 28.4%
viability, T/C [18]: 22.2%
viability, T/C [19]: 26.7%
viability, T/C [20]: 25.6%
viability, T/C [21]: 20.9%
viability, T/C [22]: 19.1%
viability, T/C [23]: 18.3%
viability, T/C [24]: 14.8%
viability, T/C [25]: 16.6%
viability, T/C [26]: 14.6%
viability, T/C [27]: 11.5%
viability, T/C [28]: 12.6%
viability, T/C [29]: 10%
viability, T/C [30]: 7.52%
viability, T/C [31]: 9.27%
viability, T/C [32]: 6.91%
viability, T/C [33]: 5.66%
viability, T/C [34]: 5.21%
viability, T/C [35]: 5.4%
viability, T/C [36]: 4.6%

C[C@@H](NC(=O)c1ncnc(N)c1Cl)c1ncc(C(=O)Nc2cc(C(F)(F)F)c(Cl)cn2)s1 + C#Cc1c(F)ccc2cc(O)cc(-c3ncc4c(N5CC6CCC(C5)N6)nc(OCC56CCCN5CC(F)C6)nc4c3F)c12
IC50 (second compound 0.0316 µM): > 10000 nM
IC50 (second compound 0.1 µM): > 10000 nM
IC50 (second compound 0.316 µM): 7540 nM
IC50 (second compound 1 µM): < 31.6 nM
IC50 (second compound 3.16 µM): < 31.6 nM
IC50 (second compound 10 µM): < 31.6 nM
viability, T/C [1]: 99.1%
viability, T/C [2]: 100%
viability, T/C [3]: 125%
viability, T/C [4]: 103%
viability, T/C [5]: 94.9%
viability, T/C [6]: 56.1%
viability, T/C [7]: 81.2%
viability, T/C [8]: 105%
viability, T/C [9]: 88.8%
viability, T/C [10]: 92.8%
viability, T/C [11]: 82%
viability, T/C [12]: 57%
viability, T/C [13]: 73.5%
viability, T/C [14]: 80.9%
viability, T/C [15]: 74.2%
viability, T/C [16]: 67.7%
viability, T/C [17]: 67%
viability, T/C [18]: 44.7%
viability, T/C [19]: 40.5%
viability, T/C [20]: 43.7%
viability, T/C [21]: 52.5%
viability, T/C [22]: 42.5%
viability, T/C [23]: 51.8%
viability, T/C [24]: 34%
viability, T/C [25]: 26.1%
viability, T/C [26]: 28.6%
viability, T/C [27]: 29.2%
viability, T/C [28]: 25.6%
viability, T/C [29]: 26.6%
viability, T/C [30]: 23.2%
viability, T/C [31]: 14.9%
viability, T/C [32]: 17.1%
viability, T/C [33]: 16.5%
viability, T/C [34]: 19.4%
viability, T/C [35]: 21.2%
viability, T/C [36]: 17.9%

C=CC(=O)N1CCN(c2nc(OCC3CCCN3C)nc3c(F)c(-c4nc(N)cc(C)c4C(F)(F)F)c(Cl)cc23)C(C)C1 (stereo not drawn) + C#Cc1c(F)ccc2cc(O)cc(-c3ncc4c(N5CC6CCC(C5)N6)nc(OCC56CCCN5CC(F)C6)nc4c3F)c12
IC50 (second compound 0.0316 µM): < 3.16 nM
IC50 (second compound 0.1 µM): < 3.16 nM
IC50 (second compound 0.316 µM): < 3.16 nM
IC50 (second compound 1 µM): < 3.16 nM
IC50 (second compound 3.16 µM): < 3.16 nM
IC50 (second compound 10 µM): < 3.16 nM
viability, T/C (second compound 0.0316 µM, first compound 0.00316 µM): 17.4%
viability, T/C (second compound 0.0316 µM, first compound 0.01 µM): 12.2%
viability, T/C [1]: 11.1%
viability, T/C [2]: 12.7%
viability, T/C [3]: 12.4%
viability, T/C [4]: 11.7%
viability, T/C (second compound 0.1 µM, first compound 0.00316 µM): 14%
viability, T/C (second compound 0.1 µM, first compound 0.01 µM): 12%
viability, T/C [7]: 9.61%
viability, T/C [8]: 11.5%
viability, T/C [9]: 11%
viability, T/C [10]: 10.9%
viability, T/C (second compound 0.316 µM, first compound 0.00316 µM): 16.3%
viability, T/C (second compound 0.316 µM, first compound 0.01 µM): 15.7%
viability, T/C [13]: 11.2%
viability, T/C [14]: 8.83%
viability, T/C [15]: 13.8%
viability, T/C [16]: 9.54%
viability, T/C (second compound 1 µM, first compound 0.00316 µM): 20%
viability, T/C (second compound 1 µM, first compound 0.01 µM): 12.6%
viability, T/C [19]: 10.3%
viability, T/C [20]: 8.88%
viability, T/C [21]: 9.02%
viability, T/C [22]: 8.65%
viability, T/C (second compound 3.16 µM, first compound 0.00316 µM): 14%
viability, T/C (second compound 3.16 µM, first compound 0.01 µM): 10.2%
viability, T/C [25]: 8.81%
viability, T/C [26]: 7.62%
viability, T/C [27]: 9.35%
viability, T/C [28]: 8.07%
viability, T/C (second compound 10 µM, first compound 0.00316 µM): 10.8%
viability, T/C (second compound 10 µM, first compound 0.01 µM): 8.76%
viability, T/C [31]: 8.93%
viability, T/C [32]: 9.51%
viability, T/C [33]: 9.18%
viability, T/C [34]: 8.52%

CCc1c2c(nc3ccc(O)cc13)-c1cc3c(c(=O)n1C2)COC(=O)[C@]3(O)CC + C=CC(=O)N1CCN(c2nc(OCC3CCCN3C)nc3c(F)c(-c4nc(N)cc(C)c4C(F)(F)F)c(Cl)cc23)C(C)C1
IC50 (second compound 0.00316 µM): < 0.949 nM
IC50 (second compound 0.01 µM): < 0.949 nM
IC50 (second compound 0.0316 µM): < 0.949 nM
IC50 (second compound 0.1 µM): < 0.949 nM
IC50 (second compound 0.316 µM): < 0.949 nM
IC50 (second compound 1 µM): < 0.949 nM
viability, T/C (second compound 0.00316 µM, first compound 0.000949 µM): 17.1%
viability, T/C (second compound 0.00316 µM, first compound 0.003 µM): 14.7%
viability, T/C (second compound 0.00316 µM, first compound 0.00949 µM): 15%
viability, T/C (second compound 0.00316 µM, first compound 0.03 µM): 12.2%
viability, T/C (second compound 0.00316 µM, first compound 0.0949 µM): 7.62%
viability, T/C (second compound 0.00316 µM, first compound 0.3 µM): 4.2%
viability, T/C (second compound 0.01 µM, first compound 0.000949 µM): 18%
viability, T/C (second compound 0.01 µM, first compound 0.003 µM): 13.9%
viability, T/C (second compound 0.01 µM, first compound 0.00949 µM): 12.2%
viability, T/C (second compound 0.01 µM, first compound 0.03 µM): 10.3%
viability, T/C (second compound 0.01 µM, first compound 0.0949 µM): 6.26%
viability, T/C (second compound 0.01 µM, first compound 0.3 µM): 3.82%
viability, T/C (second compound 0.0316 µM, first compound 0.000949 µM): 14.9%
viability, T/C (second compound 0.0316 µM, first compound 0.003 µM): 11.9%
viability, T/C (second compound 0.0316 µM, first compound 0.00949 µM): 14%
viability, T/C (second compound 0.0316 µM, first compound 0.03 µM): 8.57%
viability, T/C (second compound 0.0316 µM, first compound 0.0949 µM): 6.15%
viability, T/C (second compound 0.0316 µM, first compound 0.3 µM): 3.69%
viability, T/C (second compound 0.1 µM, first compound 0.000949 µM): 13.6%
viability, T/C (second compound 0.1 µM, first compound 0.003 µM): 12.4%
viability, T/C (second compound 0.1 µM, first compound 0.00949 µM): 9.96%
viability, T/C (second compound 0.1 µM, first compound 0.03 µM): 9.55%
viability, T/C (second compound 0.1 µM, first compound 0.0949 µM): 6.17%
viability, T/C (second compound 0.1 µM, first compound 0.3 µM): 2.99%
viability, T/C (second compound 0.316 µM, first compound 0.000949 µM): 12.7%
viability, T/C (second compound 0.316 µM, first compound 0.003 µM): 12.2%
viability, T/C (second compound 0.316 µM, first compound 0.00949 µM): 11.6%
viability, T/C (second compound 0.316 µM, first compound 0.03 µM): 9.06%
viability, T/C (second compound 0.316 µM, first compound 0.0949 µM): 6.73%
viability, T/C (second compound 0.316 µM, first compound 0.3 µM): 3.59%
viability, T/C (second compound 1 µM, first compound 0.000949 µM): 13.1%
viability, T/C (second compound 1 µM, first compound 0.003 µM): 13.5%
viability, T/C (second compound 1 µM, first compound 0.00949 µM): 12.9%
viability, T/C (second compound 1 µM, first compound 0.03 µM): 9.98%
viability, T/C (second compound 1 µM, first compound 0.0949 µM): 8.33%
viability, T/C (second compound 1 µM, first compound 0.3 µM): 4.38%
